Here are results for 13 compounds from patent US4769384A, “Benzimidazole derivatives” (Nippon Shinyaku Co. Ltd., priority 1985, dated 1988).

Holding throughout (format): in vivo
The nature of data set [1]: Anti-ulcer action: water-immersion stress ulcer in rats, oral (ulcer index). To be noted: per os. As for the experimental part: Biological test method: Male rats of seven weeks of age were fasted for 24 hours and subjected to the test. The compound to be tested was suspended in a physiological saline solution containing 0.5% methylcellulose therein. 10 ml/kg of it was administered orally. The animals were immediately placed in a stress cage and immersed in a water bath of 23° C. to the depth of xiphoid. After 17 hours, they were sacrificed by cervical dislocation. The stomach was isolated therefrom. 7 ml of 2% formaline solution was introduced into the stomach for fixation. Then the stomach was cut along a greater curvature. The length of ulcer produced in fundus was measured under a microscope and the total ulcer length (in mm) was defined as an ulcer index per rat. Significance between mean ulcer indices was verified by the Student t-test.

Data set [2] in a line: Acute toxicity, oral, rats. Particulars: p.o., two weeks. The method, then: (§1) Method: Male mice of six weeks of age or male rats of six weeks of age were fasted for 24 hours and subjected to the test.
(§2) The compound to be tested was suspended in physiological saline solution containing 0.5% of methylcellulose. The suspension was administered orally.

Data set [3] can be described thus: Acute toxicity, oral, mice. To be noted: p.o., two weeks. The method, then:
as §1, §2

Setting [4] is: 5 mg/kg (# dose of salt as the corresponding base).
[5] abbreviates: 10 mg/kg (# dose of salt as the corresponding base).
The mark [6] stands for this setting: 20 mg/kg (# dose of salt as the corresponding base).
[7] abbreviates: 40 mg/kg (# dose of salt as the corresponding base).
[8] abbreviates: 80 mg/kg (# dose of salt as the corresponding base).
[9] abbreviates: 5 mg/kg (# dose of salt as the corresponding base), 5 mg/kg.
Where [10] appears, read: 10 mg/kg (# dose of salt as the corresponding base), 10 mg/kg.
Where [11] appears, read: 20 mg/kg (# dose of salt as the corresponding base), 20 mg/kg.

For `COC(=O)c1cccc2nc(/C=C/c3ccc(OC)c(OC)c3)[nH]c12.O=S(=O)(O)c1ccccc1` [Example 86, Methyl (E)-2-(3,4-dimethoxystyryl)benzimidazole-4-carboxylate benzenesulfonate], the figures for the “Antiulcer Action (inhibition %) after 17 hours” value (shortened to “Antiulcer Action (inhibition %)”) in data set [1] (setting [4]), in data set [1] (setting [5]) and in data set [1] (setting [6]) were 4%, 35% and 98%, respectively. In addition, the “Death Ratio” value in data set [2] (2280 mg/kg) was 0/3.
In the case of `COC(=O)c1cccc2nc(/C=C/c3ccc(OC)c(OC)c3)[nH]c12.Cl` [Example 70, Methyl (E)-2-(3,4-dimethoxystyryl)benzimidazole-4-carboxylate hydrochloride], the “Antiulcer Action (inhibition %)” value in data set [1] (setting [4]) amounted to 3%; in data set [1] (setting [5]), 72%; in data set [1] (setting [6]), 80%. Moreover, the “Death Ratio” value in data set [3] (2340 mg/kg) is 1/5.
Take `COC(=O)c1cccc2nc(/C=C/c3ccc(OC)cc3)[nH]c12.O=P(O)(O)O` [Example 54, Methyl (E)-2-(4-methoxystyryl)benzimidazole-4-carboxylate phosphate]: the entries for the “Antiulcer Action (inhibition %)” value in data set [1] (setting [6]), in data set [1] (setting [7]) and in data set [1] (setting [8]) were 55%, 86% and 98%, respectively. In addition, in data set [2] (2636 mg/kg), the “Death Ratio” value is 0/4.
With `CN/C(=N/CCSCc1nc[nH]c1C)NC#N` [Cimetidine, reference compound], the “Antiulcer Action (inhibition %)” value in data set [1] (200 mg/kg) came to 66%.
In the case of `COC(=O)c1cccc2nc(/C=C/c3ccc(OC)c(OC)c3)[nH]c12` [1 (phosphate), Methyl (E)-2-(3,4-dimethoxystyryl)benzimidazole-4-carboxylate], the “Antiulcer Action (inhibition %)” value was 66% in data set [1] (setting [5]) and 92% in data set [1] (setting [6]). Also, the entries for the “Death Ratio” value in data set [2] (2580 mg/kg) and in data set [3] (2580 mg/kg) were 0/4 and 0/3, respectively.
As to `COC(=O)c1cccc2nc(/C=C/c3ccc(OC)c(OC)c3)[nH]c12.O=S(=O)(O)O` [Example 67, Methyl (E)-2-(3,4-dimethoxystyryl)benzimidazole-4-carboxylate sulfate], the “Antiulcer Action (inhibition %)” value in data set [1] (setting [4]) is 48%; in data set [1] (setting [5]), 72%.
For `COC(=O)c1cccc2[nH]c(/C=C/c3ccc(OC)c(OC)c3)nc12` [Example 66, Methyl (E)-2-(3,4-dimethoxystyryl)benzimidazole-4-carboxylate 1-naphthalenesulfonate], the “Antiulcer Action (inhibition %)” value in data set [1] (setting [9]) was found to be 7%; in data set [1] (setting [10]), 63%; in data set [1] (setting [11]), 87%.
Consider `Br.COC(=O)c1cccc2nc(/C=C/c3ccc(OC)c(OC)c3)[nH]c12` [Example 69, Methyl (E)-2-(3,4-dimethoxystyryl)benzimidazole-4-carboxylate hydrobromide], for which the “Antiulcer Action (inhibition %)” value in data set [1] (setting [4]) was found to be 38%; in data set [1] (setting [5]), 82%. The “Death Ratio” value in data set [3] (2560 mg/kg) is listed as 2/5.
Regarding `COC(=O)c1cccc2nc(/C=C/c3ccc(OC)c(OC)c3)[nH]c12` [Example 65, Methyl (E)-2-(3,4-dimethoxystyryl)benzimidazole-4-carboxylate d-10-camphorsulfonate], the “Antiulcer Action (inhibition %)” value in data set [1] (setting [9]) is reported as 12%; in data set [1] (setting [10]), 69%; in data set [1] (setting [11]) it was 89%. In data set [3] (3440 mg/kg), the “Death Ratio” value is reported as 2/5.
As to `CCOc1ccc(/C=C/c2nc3cccc(C(=O)OC)c3[nH]2)cc1OC.O=P(O)(O)O` [Example 53, Methyl (E)-2-(4-ethoxy-3-methoxystyryl)benzimidazole-4-carboxylate phosphate], the “Antiulcer Action (inhibition %)” value in data set [1] (setting [6]) came to 81%; in data set [1] (setting [7]) it was 99%; in data set [1] (setting [8]), 99%.
In the case of `COC(=O)c1cccc2nc(/C=C/c3ccc(OC)c(OC)c3)[nH]c12` [Example 1, Methyl (E)-2-(3,4-dimethoxystyryl)benzimidazole-4-carboxylate], the figures for the “Antiulcer Action (inhibition %)” value in data set [1] (10 mg/kg), in data set [1] (20 mg/kg) and in data set [1] (40 mg/kg) were 40%, 78% and 97%, respectively. Also, the “Death Ratio” value is given as 1/4 in data set [2] (2000 mg/kg) and 0/5 in data set [3] (2000 mg/kg).
Consider `C#CCOc1ccc(/C=C/c2nc3c(C(=O)OC)cccc3[nH]2)cc1` [Example 30, Methyl (E)-2-[4-(2-propynyloxy)styryl]benzimidazole-4-carboxylate phosphate], for which the “Antiulcer Action (inhibition %)” value in data set [1] (setting [6]) came to 44%; in data set [1] (setting [7]), 55%; in data set [1] (setting [8]), 82%.
On to `COC(=O)c1cccc2nc(/C=C/c3ccc(OC)cc3)[nH]c12` [Example 14, Methyl (E)-2-(4-methoxystyryl)benzimidazole-4-carboxylate], for which the “Antiulcer Action (inhibition %)” value in data set [1] (20 mg/kg) is 26%; in data set [1] (40 mg/kg), 81%; in data set [1] (80 mg/kg), 96%. Also, in data set [2] (2000 mg/kg), the “Death Ratio” value is reported as 0/4.
